Legend:
[1] = biological target: T1, kinases of the scanMAX Kinase assay panel (Homo sapiens, UniProt O75385); test: Kinase selectivity, DiscoverX scanMAX Kinase assay panel (% control); assay type: binding; conditions: kinase ULK1; 1 uM in DMSO
T1 construct: purchased DiscoverX Co. (contract measurement) scanMAX Kinase assay panel
T1 sequence (O75385 1-1050): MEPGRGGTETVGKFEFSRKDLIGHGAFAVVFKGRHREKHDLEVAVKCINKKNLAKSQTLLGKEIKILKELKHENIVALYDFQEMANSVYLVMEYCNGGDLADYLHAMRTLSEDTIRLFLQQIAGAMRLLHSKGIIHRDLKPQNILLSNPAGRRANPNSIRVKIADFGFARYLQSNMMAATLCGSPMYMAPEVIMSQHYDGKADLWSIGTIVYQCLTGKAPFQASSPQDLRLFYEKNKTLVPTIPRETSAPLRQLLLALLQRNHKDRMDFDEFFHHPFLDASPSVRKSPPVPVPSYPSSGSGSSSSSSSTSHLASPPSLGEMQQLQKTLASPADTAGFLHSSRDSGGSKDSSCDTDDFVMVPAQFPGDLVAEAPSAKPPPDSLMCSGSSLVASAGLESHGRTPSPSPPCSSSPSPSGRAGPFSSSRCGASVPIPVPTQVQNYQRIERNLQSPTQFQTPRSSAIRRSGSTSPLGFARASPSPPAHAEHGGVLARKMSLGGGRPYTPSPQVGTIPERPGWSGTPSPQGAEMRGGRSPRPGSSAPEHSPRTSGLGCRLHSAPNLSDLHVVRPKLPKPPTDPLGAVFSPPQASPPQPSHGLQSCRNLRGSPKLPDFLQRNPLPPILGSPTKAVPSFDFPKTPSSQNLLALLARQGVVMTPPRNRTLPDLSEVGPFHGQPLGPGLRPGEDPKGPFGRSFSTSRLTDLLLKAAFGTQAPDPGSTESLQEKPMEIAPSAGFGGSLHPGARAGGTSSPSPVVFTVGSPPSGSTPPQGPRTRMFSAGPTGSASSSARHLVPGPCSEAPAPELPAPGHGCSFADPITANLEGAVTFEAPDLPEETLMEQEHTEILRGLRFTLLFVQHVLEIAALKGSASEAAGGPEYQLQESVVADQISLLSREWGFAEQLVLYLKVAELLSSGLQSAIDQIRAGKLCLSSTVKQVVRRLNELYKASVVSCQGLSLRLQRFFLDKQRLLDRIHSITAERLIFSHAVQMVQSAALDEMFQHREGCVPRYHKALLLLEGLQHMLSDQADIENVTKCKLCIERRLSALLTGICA
How it was run: (§1)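 Compounds tested at 1 uM against the scanMAX kinase panel. Signal expressed as % control = (compound − positive control)/(DMSO negative control − positive control) × 100, where positive control = 0% and DMSO = 100%; below 35% counted as activity on that kinase.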

[2] = biological target: T2, kinases of the scanMAX Kinase assay panel (Homo sapiens, UniProt P29323); test: as above; assay type: binding; conditions: EPHB2; 1 uM
T2 construct: purchased DiscoverX Co. (contract measurement) scanMAX Kinase assay panel
T2 sequence (P29323 19-1055): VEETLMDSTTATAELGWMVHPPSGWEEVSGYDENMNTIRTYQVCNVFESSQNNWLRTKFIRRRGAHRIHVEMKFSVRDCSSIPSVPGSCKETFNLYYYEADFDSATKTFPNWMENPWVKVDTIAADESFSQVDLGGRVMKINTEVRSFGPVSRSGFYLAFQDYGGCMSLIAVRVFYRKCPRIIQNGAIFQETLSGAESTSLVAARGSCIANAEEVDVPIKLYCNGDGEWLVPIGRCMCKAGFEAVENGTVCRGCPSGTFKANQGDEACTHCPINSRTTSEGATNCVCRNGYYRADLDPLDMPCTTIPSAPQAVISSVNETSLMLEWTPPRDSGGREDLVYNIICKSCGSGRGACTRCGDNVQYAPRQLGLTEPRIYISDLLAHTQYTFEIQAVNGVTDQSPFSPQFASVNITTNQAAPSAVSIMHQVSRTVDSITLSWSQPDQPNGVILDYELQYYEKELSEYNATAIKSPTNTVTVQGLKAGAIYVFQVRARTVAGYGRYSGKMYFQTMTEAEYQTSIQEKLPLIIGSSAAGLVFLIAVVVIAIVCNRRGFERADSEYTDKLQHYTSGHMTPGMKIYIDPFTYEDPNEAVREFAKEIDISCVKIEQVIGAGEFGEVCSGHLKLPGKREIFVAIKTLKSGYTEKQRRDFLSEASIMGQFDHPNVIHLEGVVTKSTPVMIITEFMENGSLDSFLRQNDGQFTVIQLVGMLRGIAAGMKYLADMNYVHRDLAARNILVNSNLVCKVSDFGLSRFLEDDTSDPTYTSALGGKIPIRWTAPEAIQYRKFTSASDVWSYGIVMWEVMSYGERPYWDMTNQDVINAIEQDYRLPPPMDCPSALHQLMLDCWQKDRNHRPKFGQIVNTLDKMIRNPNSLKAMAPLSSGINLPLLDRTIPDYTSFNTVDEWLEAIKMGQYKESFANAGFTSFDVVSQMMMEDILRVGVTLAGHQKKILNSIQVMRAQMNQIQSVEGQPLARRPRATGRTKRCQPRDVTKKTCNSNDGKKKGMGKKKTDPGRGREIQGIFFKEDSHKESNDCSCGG
How it was run: as §1

Question: How did the remaining binding at 1 µM [1] turn out when `CNc1nc(Nc2ccc(C(=O)N3CCOCC3)cc2OC)nc2[nH]cc(C#N)c12` [Example 1, 2-((2-methoxy-4-(morpholine-4-carbonyl)phenyl)amino)-4-(methylamino)-7H-pyrrolo[2,3-d]pyrimidine-5-carbonitrile] was run?
Answer: 75%

Question: And the remaining binding at 1 µM [2]?
Answer: 99%

Question: How did the remaining binding at 1 µM [1] turn out when `CC1(Nc2nc(Nc3cnn([C@H]4CCN(C5COC5)C[C@@H]4F)c3Cl)nc3[nH]cc(C#N)c23)CC1` [Example 52, 2-((5-chloro-1-((3S,4S)-3-fluoro-1-(oxetane-3-yl)piperidine-4-yl)-1H-pyrazole-4-yl)amino)((1-methylcyclopropyl)amino)-7H-pyrrolo[2,3-d]pyrimidine-5-carbonitrile] was run?
Answer: 20%

Question: What about the remaining binding at 1 µM [2] of the same compound?
Answer: 70%

Question: For `CCNc1nc(Nc2ccc(C(=O)N3CCC(N4CCOCC4)CC3)cc2OC)nc2[nH]cc(C(F)(F)F)c12` [Example 104, (4-((4-(ethylamino)-5-(trifluoromethyl)-7H-pyrrolo[2,3-d]pyrimidine-2-yl)amino)-3-methoxyphenyl)(4-morpholinopiperidine-1-yl)methanone], which remaining binding at 1 µM [1] is on record?
Answer: 100%

Question: What about the remaining binding at 1 µM [2] of the same compound?
Answer: 91%

— patent publication US11208412B2 (DAEGU-GYEONGBUK MEDICAL INNOVATION FOUNDATION, priority 2017, dated 2021)
